The values below come from patent US20080132505A1 (Glaxo Group Limited, priority 2004, published 2008).

One may read the EC50 as the concentration needed to bring the measured effect to its halfway point. The term Emax denotes the maximal effect, on the per cent scale that the assay sets.

Where two headings read alike, the source gives them in different places.

For the experiment, the target named is human cannabinoid CB2 receptor (Homo sapiens, UniProt P34972). The experiment is described as follows: Cannabinoid CB2 receptor agonist activity (yeast reporter assay, FDGlu fluorescence). Type of experiment: cell-based. As to conditions: for Emax: read-out: efficacy value (Emax relative to HU210) at the cloned human cannabinoid CB2 receptor. The gist of the method:
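S. cerevisiae MMY23 expressing human CB2 with a Gpa1/Gαi3 chimeric G-protein, grown 24 h at 30 °C with agonist (1% DMSO) in selective media containing 10 mM 3-aminotriazole and FDGlu, pH 7.0. Fluorescein fluorescence (485/535 nm) fitted by four-parameter curve; Emax and EMR relative to HU210.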
On the technique in general: A reporter such as luciferase makes a cellular process visible.

[1] abbreviates: EC50 value at the cloned human cannabinoid CB2 receptor.
Where [2] appears, read: read-out: EC50 value at the cloned human cannabinoid CB2 receptor.

human cannabinoid CB2 receptor, sequence (P34972 whole entry): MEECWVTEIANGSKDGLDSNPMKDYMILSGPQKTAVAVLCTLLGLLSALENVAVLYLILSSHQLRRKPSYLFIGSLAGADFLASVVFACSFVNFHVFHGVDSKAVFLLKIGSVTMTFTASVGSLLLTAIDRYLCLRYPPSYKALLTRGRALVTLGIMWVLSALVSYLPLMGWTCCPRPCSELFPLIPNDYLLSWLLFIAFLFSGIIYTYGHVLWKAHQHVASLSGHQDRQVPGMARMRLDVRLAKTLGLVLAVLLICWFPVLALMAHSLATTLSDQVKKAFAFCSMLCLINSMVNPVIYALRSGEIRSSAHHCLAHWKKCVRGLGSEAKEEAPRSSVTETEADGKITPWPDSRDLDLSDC

For `COc1ccc(CNC(=O)c2cnc(Nc3cccc(Cl)c3)nc2C(F)(F)F)cc1` [Example 269, 2-(3-Chlorophenylamino)-4-trifluoromethylpyrimidine-5-carboxylic acid 4-methoxybenzyl-amide], the Emax was above 50%. Also, the EC50 under setting [1] lay within 20 to 300 nM. On the same counts, the results for `O=C(NCC1CCC1)c1cnc(Nc2cccc(C(F)(F)F)c2F)nc1C(F)(F)F` [Example 252, 2-(2-Fluoro-3-trifluoromethyl-phenylamino)-4-trifluoromethyl-pyrimidine-5-carboxylic acid cyclobutylmethyl-amide] are above 50% and 20 to 300 nM. Consider `O=C(NCC1CCOCC1)c1cnc(Nc2cccc(Cl)c2Cl)nc1C(F)(F)F` [Example 33, 2-(2,3-Dichlorophenylamino)-4-trifluoromethylpyrimidine-5-carboxylic acid (tetrahydropyran-4-ylmethyl)amide], for which the Emax was above 50%. The same compound showed an EC50 under setting [1] of 20 to 300 nM. As for `O=C(NCc1ccccc1)c1cnc(Nc2cccc(Cl)c2Cl)nc1C(F)(F)F` [Example 300, 2-(2,3-Dichloro-phenylamino)-4-trifluoromethyl-pyrimidine-5-carboxylic acid benzylamide], the maximal response (Emax) is above 50%. Under setting [1], this compound gave an EC50 of 300 to 1000 nM. On the same counts, the results for `Cc1ccc(Cl)cc1Nc1ncc(C(=O)NCC2CCC2)c(C(F)(F)F)n1` [Example 259, 2-(5-Chloro-2-methylphenylamino)-4-trifluoromethyl-pyrimidine-5-carboxylic acid cyclobutylmethyl-amide] are above 50% and 300 to 1000 nM.

`Cc1c(Cl)cccc1Nc1ncc(C(=O)NCC2CCOCC2)c(C(F)(F)F)n1` [Example 185, 2-(3-Chloro-2-methylphenylamino)-4-trifluoromethyl-pyrimidine-5-carboxylic acid (tetrahydropyran-4-ylmethyl)-amide]: the maximal effect (Emax) was above 50%. Further, the concentration for a half-maximal effect (EC50) under setting [1] was in the range of 20 to 300 nM.

In the case of `O=C(NCC1CCC1)c1cnc(Nc2ccc(Br)cc2C(F)(F)F)nc1C(F)(F)F` [Example 105, 2-(2-Trifluoromethyl-4-bromophenylamino)-4-trifluoromethyl-pyrimidine-5-carboxylic acid cyclobutylmethyl-amide], the Emax was above 50%. The compound also displayed an EC50 under setting [1] of 300 to 1000 nM. Compound `O=C(NCc1ccnc(F)c1)c1cnc(Nc2cccc(F)c2)nc1C(F)(F)F` [Example 354, 2-(3-Fluoro-phenylamino)-4-trifluoromethyl-pyrimidine-5-carboxylic acid (2-fluoro-pyridin-4-ylmethyl)-amide] yielded an EC50 under setting [1] of 20 to 300 nM. In the case of `COc1ccccc1Nc1ncc(C(=O)N(C)Cc2ccccc2)c(C(F)(F)F)n1` [Example 296, 2-(2-Methoxy-phenylamino)-4-trifluoromethyl-pyrimidine-5-carboxylic acid N-benzyl-N-methyl-amide], the EC50 under setting [2] fell in the range of 300 to 1000 nM. Regarding `Cc1ccc(Nc2ncc(C(=O)NCC3CCOCC3)c(C(F)(F)F)n2)cc1Cl` [Example 184, 2-(3-Chloro-4-methylphenylamino)-4-trifluoromethyl-pyrimidine-5-carboxylic acid (tetrahydropyran-4-ylmethyl)-amide], the maximal effect (Emax) was above 50%. The compound further yielded an EC50 under setting [1] of 20 to 300 nM. On the same counts, the results for `O=C(NCC1CCOCC1)c1cnc(Nc2ccc(OC(F)(F)F)c(Cl)c2)nc1C(F)(F)F` [Example 216, 2-(4-Trifluoromethoxy-3-chloro-phenylamino)-4-trifluoromethyl-pyrimidine-5-carboxylic acid (tetrahydro-pyran-4-ylmethyl)-amide] are above 50% and 20 to 300 nM. On the same counts, the results for `O=C(NCC1CCOCC1)c1cnc(Nc2cccc(C(F)(F)F)c2F)nc1C(F)(F)F` [Example 181, 2-(2-Fluoro-3-(trifluoromethyl)phenylamino)-4-trifluoromethyl-pyrimidine-5-carboxylic acid (tetrahydropyran-4-ylmethyl)-amide] are above 50% and 20 to 300 nM.

The compound `O=C(NCc1ccc(F)cc1)c1cnc(Nc2cccc(F)c2)nc1C(F)(F)F` [Example 288, 2-(3-Fluorophenylamino)-4-trifluoromethylpyrimidine-5-carboxylic acid 4-fluorobenzyl-amide] had an EC50 under setting [1] of 20 to 300 nM. Still for that read-out and setting: under `CN(Cc1ccccc1)C(=O)c1cnc(Nc2cccc(Cl)c2Cl)nc1C(F)(F)F` [Example 272, 2-(2,3-Dichlorophenylamino)-4-trifluoromethylpyrimidine-5-carboxylic acid N-benzyl-N-methylamide] stands 20 to 300 nM. Regarding `N#Cc1ccc(Nc2ncc(C(=O)NCC3CCCC3)c(C(F)(F)F)n2)cc1Cl` [Example 219, 2-(4-Cyano-3-chloro-phenylamino)-4-trifluoromethyl-pyrimidine-5-carboxylic acid cyclopentylmethyl-amide], the Emax was above 50%. The compound further showed an EC50 under setting [1] of 20 to 300 nM.

In the case of `N#Cc1ccc(CNC(=O)c2cnc(Nc3cccc(F)c3)nc2C(F)(F)F)cc1` [Example 306, 2-(3-Fluoro-phenylamino)-4-trifluoromethyl-pyrimidine-5-carboxylic acid N-(4-cyano-benzyl)amide], the maximal effect (Emax) was above 50%. For the same compound, under setting [1], the concentration giving a half-maximal response (EC50) is 300 to 1000 nM.

`CN(Cc1ccccc1)C(=O)c1cnc(Nc2cccc(F)c2)nc1C(F)(F)F` [Example 301, 2-(3-Fluoro-phenylamino)-4-trifluoromethyl-pyrimidine-5-carboxylic acid N-benzyl-N-methyl-amide]: the Emax is above 50%. Under setting [1], the EC50 was in the range of 300 to 1000 nM. With `O=C(NCC1CCCCC1)c1cnc(Nc2ccc(F)cc2C(F)(F)F)nc1C(F)(F)F` [Example 100, 2-(2-Trifluoromethyl-4-fluorophenylamino)-4-trifluoromethyl-pyrimidine-5-carboxylic acid cyclohexylmethyl-amide], the Emax is above 50%. In addition, the EC50 under setting [1] fell in the range of 300 to 1000 nM. On the same counts, the results for `O=C(NCC1CCOCC1)c1cnc(Nc2cccc(F)c2F)nc1C(F)(F)F` [Example 107, 2-(2,3-Difluoro-phenylamino)-4-tri-fluoromethyl-pyrimidine-5-carboxylic acid (tetrahydropyran-4-ylmethyl)-amide] are above 50% and 300 to 1000 nM. On the same counts, the results for `O=C(c1cnc(Nc2ccccc2)nc1C(F)(F)F)N1CCCCC1` [Example 24, 1-(2-Phenylamino-4-trifluoromethyl-pyrimidin-5-yl)-1-piperidin-1-yl-methanone] are above 50% and 300 to 1000 nM.

As for `O=C(NCC1CCCC1)c1cnc(Nc2ccc(C(F)(F)F)c(F)c2)nc1C(F)(F)F` [Example 97, 2-(4-Trifluoromethyl-3-fluorophenylamino)-4-trifluoromethyl-pyrimidine-5-carboxylic acid cyclopentylmethyl-amide], the 50% effective concentration (EC50) under setting [2] is 300 to 1000 nM. Turning to `O=C(NCC1CC1)c1cnc(Nc2ccc(Cl)cc2Cl)nc1C(F)(F)F` [Example 241, 2-(2,4-Dichlorophenylamino)-4-trifluoromethylpyrimidine-5-carboxylic acid cyclopropylmethyl-amide], the Emax was above 50%. The same compound returned a concentration giving a half-maximal response (EC50) under setting [1] of 20 to 300 nM. Regarding `O=C(NCC1CCOCC1)c1cnc(Nc2ccc(F)cc2Cl)nc1C(F)(F)F` [Example 233, 2-(2-Chloro-4-fluoro-phenylamino)-4-trifluoromethyl-pyrimidine-5-carboxylic acid (tetrahydro-pyran-4-ylmethyl)-amide], the maximal response (Emax) is above 50%. The same compound displayed a half-maximal effective concentration (EC50) under setting [1] of 20 to 300 nM.
